Inhibition and Activity data for four compounds are collected here from ChEMBL document CHEMBL1149720, “Homoscalarane sesterterpenes from Lendenfeldia frondosa” (J Nat Prod, 1992).

Active and inactive are the calls of the source. The rule behind the calls is not given here.

Assay [1] in a line: Inhibition of PLA2 activity at 8 uM.
Assay [2] in a line: Inhibition of PLA2 activity at 4 uM.

For the compound `CC(=O)OC[C@]12CCCC(C)(C)[C@@H]1CC[C@]1(C)[C@@H]2C[C@H]2OC(=O)[C@H]3[C@H](C(C)=O)[C@H](OC(C)=O)C[C@@H]1[C@]23C`, the inhibition (as a rule, the percentage by which the read-out fell short of the control) in assay [1] came to 35%. In the case of `COC(=O)[C@H]1[C@H](C(C)=O)[C@@H](OC(C)=O)C[C@H]2[C@]3(C)CC[C@H]4C(C)(C)CCC[C@]4(COC(C)=O)[C@H]3C[C@@H](O)[C@]12C`, in assay [1], the result was inactive. Still for that read-out and setting: the same measure for `CC(=O)OC[C@]12CCCC(C)(C)[C@@H]1CC[C@]1(C)[C@@H]2C[C@@H](O)[C@]2(C)[C@H]3C(=O)O[C@@H](C)[C@@H]3[C@@H](OC(C)=O)C[C@@H]12`: “inactive”. In assay [2], `CC1=C(CC/C(C)=C/CCC2=CC[C@H](C3=CC(=O)O[C@H]3O)O[C@H]2O)C(C)(C)CCC1` showed an inhibition of 100%.
